Test results reported in US8241842B2, “Methods and devices for measuring diffusion by magnetic resonance imaging” (California Institute of Technology, priority 2003, dated 2012).
Where “and” joins values, the source holds several entries; their conditions need not be identical. Equal entries are not always repeated. Where two headings read alike, the source gives them in different places. One block for each compound: values may come before it.

Columns and labels:
[1] = MRI of D2O/H2O exchange across a membrane in the membrane cell (Example 1A, FIG. 1); format: physicochemical; details: Water/D2O chamber signal ratio vs time, best fit exponential; one chamber initially D2O, the other H2O
Excerpt: D2O gives no signal in conventional 1H MRI, and thus acts as a negative marker. The diffusional permeability can then be calculated from the signal time-course using conventional mass transport equations assuming that signal intensity is proportional to water concentration.
FIG. 1 provides the results of experiments on D2O-concentration related signal changes in two chambers, one initially containing D2O, the other with H2O.

[2] = MRI of D2O/H2O exchange across a membrane in the membrane cell (Example 1B, FIG. 2); format: physicochemical; details: signal difference between chambers over 64 minutes; upper chamber deuterium oxide saline, lower water saline; 12 micron pore-size polycarbonate membrane
Excerpt: A 5 mm diameter membrane tissue sample is mounted between two layers of 125 micron pore-size nylon mesh. The tissue sample assembly is then mounted in the central recess of the cell base and the cell cap is tightened onto the base using three M2.5 nylon screws. O-rings mounted into the cap and base prevent fluid leakage between the upper and lower central chambers. The central well of the base is filled with water or saline water with the cell inverted. The base well is then sealed with impermeable adhesive tape. The central well of the upper chamber is filled with deuterium oxide (D2O) or D2O saline and sealed with impermeable adhesive tape as before.
D2O gives no signal in conventional ^1H MRI, and thus acts as a negative marker. The diffusional permeability can then be calculated from either the mean signal time-courses in the upper and lower chambers using conventional mass transport equations assuming that signal intensity is proportional to water concentration.
FIG. 2 provides the results of experiments on D2O-concentration related signal changes in two chambers, one initially containing D2O, the other with H2O. Cross-sectional T1-weighted magnetic resonance image through the membrane cell during permeability testing of a single layer of 12 micron pore-size polycarbonate membrane. Images at (a) time=0 minutes and (b) 64 minutes are shown. Images were acquired every 256 seconds. […]

[3] = MRI of gadolinium chelate diffusion across a membrane (Example 3, FIG. 5); format: physicochemical; details: exponential fit to signal difference between chambers; upper chamber initially 1 mM gadolinium chelate, lower chamber water
Description: FIGS. 5A-5C provide the results of experiments on gadolinium chelate-concentration related signal changes in two chambers. (a) MR image of the membrane cell with the upper chamber initially containing 1 mM gadolinium chelate (Prohance® (gadoteridol), Bracco Diagnostics Inc., Princeton N.J.) and the lower chamber containing water. Signal enhancement due to the gadolinium chelate can be indicated by red false coloring. (b) the mean signal time course within the regions of interest indicated by black boxes in (a). The signal difference between the chambers has been fitted to an exponential and has a time-constant of approximately 158 minutes. The concentration time course in each chamber would require signal-concentration calibration. […] This effect would not be readily detected by non-imaging methods.
Gadolinium chelates of various molecular weights (e.g. […]) may be used as MR detectable tracers which alter the T1 relaxation time of the surrounding water and thus imparts contrast to the image. […] If the upper chamber is initially filled with a dilute aqueous solution of the chelate, and the lower chamber is filled with water, the diffusional permeability of the membrane may be estimated from the time course of either (a) the mean signal within each chamber or (b) the spatial variation of chelate above and below the membrane as determined by calibrated MR images. […]

[4] = from mean signal ratio between chambers; one saturated with oxygen, the other with argon; 0.4 μm polycarbonate film
Excerpt: (§1) This sample assembly is then inserted in the upper circular recess of the membrane cell base. The membrane cell washer is then placed over the sample assembly and the membrane cell cap screwed onto the base, tightening the washer onto the sample assembly. The upper central well in the membrane cell cap is then filled with inert gas (e.g. argon or nitrogen) saturated aqueous solution and sample placed in the magnetic resonance imaging system.
(§2) Sequential T1-weighted magnetic resonance images are acquired of a midline slice through the membrane cell, parallel to the long-axis of the cell.
(§3) The generalized exponential decay to equilibrium in two chamber system, including systematic drift function F(t) is given by: SA(t)=F(t)[SA(∞)+(SA(0)−SA(∞))e^−t/Tc] SB(t)=F(t)[SB(∞)+(SB(∞)−SB(0))e^−t/Tc] Taking the ration of the two signals eliminates the systematic drift allowing the time-constant for the transport across the membrane to be determined from the MRI signal time-course, as follows:
The dividing membrane was 0.4 μm pore-size polycarbonate film.

[5] = from mean signal ratio between chambers; one saturated with oxygen, the other with argon; fresh Bruch's membrane
Excerpt: as §1, §2
as §3, with “follows: […]” for “follows:”

time constant for the exchange [1]: approximately 17.3 minutes | time-constant of the fitted exponential decay (index of membrane permeability) [2]: 40.7 min
SMILES: [2H]O[2H] [D2O, deuterium oxide]

SMILES: CC(O)CN1CCN(CC(=O)[O-])CCN(CC(=O)[O-])CCN(CC(=O)[O-])CC1.[Gd+3] (centres unmarked) [Prohance, gadoteridol]
time-constant [3]: approximately 158 minutes

time-constant [4]: 59.8 min and 54.9 min | time-constant [5]: 67.7 min
SMILES: O=O [oxygen]
